Measured values: patent US20230227406A1, “MODULATORS OF E3 LIGASES” (Rekindle Therapeutics Inc., priority 2020, published 2023)

Tests used:
[1] = test system: phosphorylated AKT and phosphorylated Ribosomal Protein S6; assay: Western blot of AKT and S6 phosphorylation in Hs578T cells; type: cell-based, human; conditions: 48 hours, indicated concentrations
Method: Hs578T cells (human triple negative breast cancer) were treated with the indicated concentration of COMPOUND 1 for 48 hours prior to harvesting. The “0” concentration is DMSO only (0.5%, same as was used for compound doses). […] Analysis occurred via western blot using the indicated antibodies. Quantification by densitometry of the bands from the western blot are presented for phosphorylated AKT/Total AKT and phosphorylated Ribosomal Protein S6/Total Ribosomal Protein S6. COMPOUND 1 reduced both AKT and S6 phosphorylation relative to their respective total protein levels.
(§1) The data presented here are consistent with the previous replicate in Hs578T cells, and the observation is preserved in another TNBC cell line, BT-20. COMPOUND 1 reduces the phospho-AKT/vinculin loading control and phospho-S6/total S6 ratios. Methods are the same as the previous replicate, using the indicated doses.
Hs578T cells (human triple negative breast cancer) were treated with the indicated concentration of COMPOUND 6 for 48 hours prior to harvesting. The “0” concentration is DMSO only (0.5%, same as was used for compound doses). […] Analysis occurred via western blot using the indicated antibodies.
The data presented here are consistent with the previous replicate in Hs578T cells. COMPOUND 6 reduces the phospho-AKT/vinculin loading control and phospho-S6/total S6 ratios. Methods are the same as the previous replicate, using the indicated doses.
Hs578T cells (human triple negative breast cancer) were treated with the indicated concentration of COMPOUND 7 for 48 hours before harvesting. The “0” concentration is DMSO only (0.5%, same as was used for compound doses). […] Analysis occurred via western blot using the indicated antibodies.
The data presented here are consistent with the previous replicate in Hs578T cells. COMPOUND 7 reduces the phospho-S6/vinculin loading control ratio. Methods are the same as the previous replicate, using the indicated doses.
Hs578T cells (human triple negative breast cancer) were treated with the indicated concentration of COMPOUND 8 for 48 hours and then harvested. The “0” concentration is DMSO only (0.5%, same as was used for compound doses). […] Analysis occurred via western blot using the indicated antibodies.

[2] = test system: phosphorylated AKT and phosphorylated Ribosomal Protein S6; assay: Western blot of AKT and S6 phosphorylation in BT-20 cells; type: cell-based, human; conditions: indicated doses
Source text: as §1
The data presented here are consistent with the previous replicate in Hs578T cells. COMPOUND 6 reduces the phospho-AKT/vinculin loading control and phospho-S6/total S6 ratios in BT-20 cells. Methods are the same as the previous replicate, using the indicated doses.

PD-L1 = assay: Western blot of PD-L1 in BT-20 cells; type: cell-based, human; conditions: indicated doses
Source text: The data presented here are consistent with the previous replicate in Hs578T cells, and the observation is preserved in another TNBC cell line, BT-20. COMPOUND 1 increases PD-L1 levels and the glycosylated PD-L1/non-glycosylated PD-L1 ratio. Methods are the same as the previous replicate, using the indicated doses.
The data presented here are consistent with the previous replicate in Hs578T cells. COMPOUND 6 reduces the PD-L1/vinculin loading control ratio in BT-20 cells. […] Methods are the same as the previous replicate, using the indicated doses.

WWP1 = target: T1, WWP1 (Homo sapiens, UniProt Q9H0M0); assay: In vitro WWP1-dependent ubiquitination of PTEN, western blot and LC-MS/MS; type: biochemical; conditions: 2 hours, indicated doses of inhibitor
T1 construct: purchased Ubiquigent 63-0034-025/30033/D
T1 sequence (Q9H0M0 whole entry): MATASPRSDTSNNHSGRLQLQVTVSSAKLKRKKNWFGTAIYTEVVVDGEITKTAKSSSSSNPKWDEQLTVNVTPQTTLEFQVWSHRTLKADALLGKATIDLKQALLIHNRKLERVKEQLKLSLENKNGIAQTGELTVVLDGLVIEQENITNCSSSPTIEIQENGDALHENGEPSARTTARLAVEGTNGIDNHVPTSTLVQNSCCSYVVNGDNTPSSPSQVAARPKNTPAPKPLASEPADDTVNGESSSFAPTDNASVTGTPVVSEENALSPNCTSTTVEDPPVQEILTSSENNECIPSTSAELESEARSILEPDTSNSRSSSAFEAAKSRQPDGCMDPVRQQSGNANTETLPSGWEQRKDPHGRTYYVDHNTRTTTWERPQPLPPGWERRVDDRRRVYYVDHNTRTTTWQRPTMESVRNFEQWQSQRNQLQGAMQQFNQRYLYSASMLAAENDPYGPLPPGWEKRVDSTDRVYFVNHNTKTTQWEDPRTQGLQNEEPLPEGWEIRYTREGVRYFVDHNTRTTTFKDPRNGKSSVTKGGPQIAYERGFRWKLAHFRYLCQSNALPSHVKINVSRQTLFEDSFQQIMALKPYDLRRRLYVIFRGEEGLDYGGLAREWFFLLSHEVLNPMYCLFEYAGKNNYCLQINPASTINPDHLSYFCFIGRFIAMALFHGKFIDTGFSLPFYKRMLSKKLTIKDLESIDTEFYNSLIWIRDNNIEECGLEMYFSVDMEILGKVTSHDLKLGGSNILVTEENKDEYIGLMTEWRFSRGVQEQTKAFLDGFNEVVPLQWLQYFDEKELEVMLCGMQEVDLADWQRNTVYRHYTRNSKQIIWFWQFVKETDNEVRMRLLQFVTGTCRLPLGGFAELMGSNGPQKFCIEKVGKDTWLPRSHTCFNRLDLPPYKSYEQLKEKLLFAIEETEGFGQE
Method: In vitro ubiquitination reactions were carried out for 2 hours using the indicated doses of inhibitor. Increasing doses of inhibitor block PTEN substrate ubiquitination, which correlates with remaining free ubiquitin. The “0” concentration is DMSO only (0.5%, same as was used for compound doses). No E1 and No E3 negative controls are present (only free ubiquitin present). Analysis occurred by western blot using an anti-ubiquitin antibody. A fraction of these samples was digested with Trypsin/LysC and labeled with TMT quantification reagents prior to LC-MS/MS analysis.
In vitro ubiquitination reactions were carried out for 2 hours using the indicated doses of inhibitor. Increasing doses of inhibitor block PTEN substrate ubiquitination, which correlates with remaining free ubiquitin. The “0” concentration is DMSO only (0.5%, same as was used for compound doses). No E1 and No E3 negative controls are present (only free ubiquitin present). Analysis occurred by western blot using an anti-ubiquitin antibody.

C#Cc1ccc2c(C=O)cn(-c3ccccc3)c2c1 [Compound 1, 6-ethynyl-1-phenyl-1H-indole-3-carbaldehyde]
AKT phosphorylation (relative to total AKT or vinculin loading control) [1]: reduces | S6 phosphorylation (relative to total S6 or vinculin loading control) [1]: reduces | phospho-AKT/vinculin loading control ratio [2]: reduces | phospho-S6/total S6 ratio [2]: reduces | PD-L1 glycosylation (glycosylated/non-glycosylated PD-L1 ratio) (PD-L1): increases | PD-L1 levels (PD-L1/vinculin loading control ratio) (PD-L1): increases

C#CCNC(=O)c1ccc2c(Cc3c[nH]c4ccccc34)c[nH]c2c1 [Compound 6, 3-((1H-indol-3-yl)methyl)-N-(prop-2-yn-1-yl)-1H-indole-6-carboxamide]
AKT phosphorylation (relative to total AKT or vinculin loading control) [1]: reduces | S6 phosphorylation (relative to total S6 or vinculin loading control) [1]: reduces | phospho-AKT/vinculin loading control ratio [2]: reduces | phospho-S6/total S6 ratio [2]: reduces | PD-L1 glycosylation (glycosylated/non-glycosylated PD-L1 ratio) (PD-L1): probably reduces | PD-L1 levels (PD-L1/vinculin loading control ratio) (PD-L1): reduces

C#CCN(CCO)C(=O)c1ccc2c(Cc3c[nH]c4ccccc34)c[nH]c2c1 [Compound 7, 3-((1H-indol-3-yl)methyl)-N-(2-hydroxyethyl)-N-(prop-2-yn-1-yl)-1H-indole-6-carboxamide]
AKT phosphorylation (relative to total AKT or vinculin loading control) [1]: reduced | S6 phosphorylation (relative to total S6 or vinculin loading control) [1]: reduces | WWP1 dependent ubiquitination of PTEN (western blot, anti-ubiquitin) (WWP1): Inhibits WWP1-Dependent Ubiquitination of PTEN, in a Dose-Dependent Manner
